Experimental data as given in ChEMBL document CHEMBL1201862, “PubChem BioAssay data set” (2004).
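Five concentrations, 48 hours, 96-well plates. At the GI50, growth is halved.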 The source made the active and inactive calls. Cut-off read from the data, not from the text of the source: active = GI50 up to about 1.1 µM and inactive = higher.

Key:
Experiment in all cases: inhibition of tumour cell growth, NCI panel, 48 h
ACHN = test system: ACHN
COLO 205 = test system: COLO 205
EKVX = test system: EKVX
HOP-62 = test system: HOP-62
K562 = test system: K562
LXFL 529 = test system: LXFL 529
MOLT-4 = test system: MOLT-4
Malme-3M = test system: Malme-3M
NCI-H460 = test system: NCI-H460
NCI-H522 = test system: NCI-H522
SF-295 = test system: SF-295
SK-MEL-5 = test system: SK-MEL-5
SN12C = test system: SN12C
U-251 = test system: U-251
UACC-62 = test system: UACC-62
HCT-15 = test system: HCT-15

Structure (SMILES)	GI50 (ACHN)	GI50 (COLO 205)	GI50 (EKVX)	GI50 (HOP-62)	GI50 (K562)	GI50 (LXFL 529)	GI50 (MOLT-4)	GI50 (Malme-3M)	GI50 (NCI-H460)	GI50 (NCI-H522)	GI50 (SF-295)	GI50 (SK-MEL-5)	GI50 (SN12C)	GI50 (U-251)	GI50 (UACC-62)	GI50 (HCT-15) [µM]
Cc1ccc(NC(=O)CC2Sc3ccccc3NC2=O)c(C)c1 (stereo unspecified)	18.8 µM (inactive)	8.55 µM (inactive)	46.7 µM (inactive)	12.1 µM (inactive)	4.01 µM (inactive)	24.7 µM (inactive)	6.71 µM (inactive)	14.7 µM (inactive)	11.4 µM (inactive)	11.4 µM (inactive)	16.2 µM (inactive)	6.97 µM (inactive)	38.2 µM (inactive)	14 µM (inactive)	12.2 µM (inactive)	
NC(CCSCC(F)F)C(=O)O (stereo unspecified)	> 100 µM (inactive)	> 100 µM (inactive)	> 100 µM (inactive)	> 100 µM (inactive)	> 100 µM (inactive)	> 100 µM (inactive)	> 100 µM (inactive)	> 100 µM (inactive)	> 100 µM (inactive)	> 100 µM (inactive)	> 100 µM (inactive)	> 100 µM (inactive)	> 100 µM (inactive)	> 100 µM (inactive)	> 100 µM (inactive)	> 100
COc1ccc(O)c2c(=O)ccccc12	> 100 µM (inactive)	> 100 µM (inactive)	> 100 µM (inactive)	> 100 µM (inactive)	> 100 µM (inactive)	> 100 µM (inactive)	> 100 µM (inactive)	> 100 µM (inactive)	> 100 µM (inactive)	28.8 µM (inactive)	> 100 µM (inactive)	> 100 µM (inactive)	> 100 µM (inactive)	> 100 µM (inactive)	92.3 µM (inactive)	> 100
CC1CCCc2c1c1ccc3c(O)cccc3c1oc2=O (stereo unspecified)	19.7 µM (inactive)	> 100 µM (inactive)	2.05 µM (inactive)	18.7 µM (inactive)	> 100 µM (inactive)	48.8 µM (inactive)	> 100 µM (inactive)	> 100 µM (inactive)	> 100 µM (inactive)	13.7 µM (inactive)	14.8 µM (inactive)		43 µM (inactive)	33.8 µM (inactive)	35.1 µM (inactive)	> 100
CC1=CP(=O)(c2ccccc2)C=C(C)C1=C(Cl)Cl (stereo unspecified)		4.45 µM (inactive)		3.26 µM (inactive)	3.21 µM (inactive)	3.27 µM (inactive)	3.91 µM (inactive)		3.35 µM (inactive)	2.6 µM (inactive)	5.38 µM (inactive)	4.67 µM (inactive)	15.6 µM (inactive)	6.71 µM (inactive)	6.43 µM (inactive)	
COc1cc2c(cc1OC)-c1c(cc(OC)c(OC)c1OC)C2=O	> 100 µM (inactive)	> 100 µM (inactive)	> 100 µM (inactive)	25.9 µM (inactive)	> 100 µM (inactive)	> 100 µM (inactive)	> 100 µM (inactive)	> 100 µM (inactive)	> 100 µM (inactive)	49 µM (inactive)	> 100 µM (inactive)	77.1 µM (inactive)	> 100 µM (inactive)	> 100 µM (inactive)	> 100 µM (inactive)	> 100
CCO/S(=N/S(=O)(=O)c1ccccc1)c1ccccc1[N+](=O)[O-] (stereo unspecified)		> 100 µM (inactive)	> 100 µM (inactive)	> 100 µM (inactive)	> 100 µM (inactive)	> 100 µM (inactive)	> 100 µM (inactive)	> 100 µM (inactive)	> 100 µM (inactive)	> 100 µM (inactive)	> 100 µM (inactive)	> 100 µM (inactive)	> 100 µM (inactive)	> 100 µM (inactive)	> 100 µM (inactive)	> 100
O=C1C2Nc3ccccc3SC2C(=O)N1c1ccc(Br)cc1 (stereo unspecified)	17.6 µM (inactive)	55.5 µM (inactive)	23.4 µM (inactive)	17.1 µM (inactive)	21.9 µM (inactive)	20.7 µM (inactive)	25.4 µM (inactive)	27.2 µM (inactive)	47 µM (inactive)	21.7 µM (inactive)	26.6 µM (inactive)	16.2 µM (inactive)	35.9 µM (inactive)		20 µM (inactive)	78.7
COc1cc(/C=C\c2ccncc2)cc(OC)c1OC	> 100 µM (inactive)	42.1 µM (inactive)	70.8 µM (inactive)	> 100 µM (inactive)	27.3 µM (inactive)	67.6 µM (inactive)	59.4 µM (inactive)	> 100 µM (inactive)	46.6 µM (inactive)	43.3 µM (inactive)	54.3 µM (inactive)	57.5 µM (inactive)	> 100 µM (inactive)	> 100 µM (inactive)	59.2 µM (inactive)	55.7
CCN(CC)CC(C(=O)Nc1c(C)cccc1C)/C(C)=N\NC(=S)NN (stereo unspecified)	> 100 µM (inactive)	> 100 µM (inactive)	> 100 µM (inactive)	> 100 µM (inactive)	> 100 µM (inactive)	> 100 µM (inactive)	> 100 µM (inactive)	> 100 µM (inactive)	> 100 µM (inactive)	> 100 µM (inactive)	> 100 µM (inactive)	> 100 µM (inactive)		> 100 µM (inactive)	> 100 µM (inactive)	
CCOC(=O)NC(=O)c1cn(C2CCCCC2)c(=O)[nH]c1=O	35.6 µM (inactive)	98.9 µM (inactive)	> 100 µM (inactive)	38 µM (inactive)	4.9 µM (inactive)	39.7 µM (inactive)	41.8 µM (inactive)	> 100 µM (inactive)	32.2 µM (inactive)	> 100 µM (inactive)	94 µM (inactive)		> 100 µM (inactive)	56.8 µM (inactive)	40 µM (inactive)	53.8
N#CCc1nc2c(s1)C(=O)c1ccccc1C2=O	14.1 µM (inactive)	18.7 µM (inactive)	14.4 µM (inactive)	15 µM (inactive)	11.8 µM (inactive)	15 µM (inactive)	1.22 µM (inactive)	19.9 µM (inactive)	21.7 µM (inactive)	14.7 µM (inactive)	19.4 µM (inactive)	11.4 µM (inactive)	18.8 µM (inactive)	17.3 µM (inactive)	13.1 µM (inactive)	16.3
NC(=S)NNc1c([N+](=O)[O-])cnn(-c2ccccc2)c1=O	18.7 µM (inactive)	13.1 µM (inactive)		19.2 µM (inactive)	4.36 µM (inactive)	9.02 µM (inactive)	12.6 µM (inactive)	19.2 µM (inactive)	17.9 µM (inactive)	18.7 µM (inactive)	15.1 µM (inactive)	18.7 µM (inactive)	17.1 µM (inactive)	16.9 µM (inactive)	12.1 µM (inactive)	17.3
COc1cc2c[n+]3ccc4cc(OC)c(OC)cc4c3cc2cc1O	> 100 µM (inactive)		> 100 µM (inactive)		> 100 µM (inactive)	> 100 µM (inactive)	> 100 µM (inactive)	> 100 µM (inactive)	> 100 µM (inactive)	> 100 µM (inactive)	> 100 µM (inactive)	> 100 µM (inactive)	> 100 µM (inactive)	> 100 µM (inactive)	> 100 µM (inactive)	> 100
CCOC(=O)NC(=O)c1cn(CCCOC(=O)NCCCCCCNC(=O)OCCCn2c(=O)c(C(=O)NC(=O)OCC)cn(C)c2=O)c(=O)n(C)c1=O	> 100 µM (inactive)	> 100 µM (inactive)			> 100 µM (inactive)	> 100 µM (inactive)	> 100 µM (inactive)	> 100 µM (inactive)	> 100 µM (inactive)	> 100 µM (inactive)			> 100 µM (inactive)	61.2 µM (inactive)	> 100 µM (inactive)	> 100
CCOC(=O)C(=O)Nc1nc2ccc(OC)cc2s1	> 100 µM (inactive)	> 100 µM (inactive)	> 100 µM (inactive)	> 100 µM (inactive)	> 100 µM (inactive)	> 100 µM (inactive)	> 100 µM (inactive)	> 100 µM (inactive)	> 100 µM (inactive)	> 10 µM (inactive)	> 100 µM (inactive)	> 100 µM (inactive)	> 100 µM (inactive)	> 100 µM (inactive)	> 100 µM (inactive)	> 100
c1c[nH]c(Cc2nc(Cc3c[nH]cn3)c[nH]2)n1	3.51 µM (inactive)	5.37 µM (inactive)	4.49 µM (inactive)	17.5 µM (inactive)	3.37 µM (inactive)	6.7 µM (inactive)	3.48 µM (inactive)	5.07 µM (inactive)	24 µM (inactive)	12.2 µM (inactive)	35.6 µM (inactive)	20.7 µM (inactive)	29.6 µM (inactive)	34 µM (inactive)	19.8 µM (inactive)	4.58
Nc1ncnc2c1ncn2C1(CO)OC(CO)C(O)C1O (stereo unspecified)	> 100 µM (inactive)	> 100 µM (inactive)		> 100 µM (inactive)		> 100 µM (inactive)	> 100 µM (inactive)	> 100 µM (inactive)	> 100 µM (inactive)	> 100 µM (inactive)	> 100 µM (inactive)	> 100 µM (inactive)	> 100 µM (inactive)	> 100 µM (inactive)		> 100
Clc1cc2nc[nH]c2cc1Cl	> 100 µM (inactive)	> 100 µM (inactive)	> 100 µM (inactive)	93.8 µM (inactive)	> 100 µM (inactive)	> 100 µM (inactive)	> 100 µM (inactive)	> 100 µM (inactive)	> 100 µM (inactive)		> 100 µM (inactive)		> 100 µM (inactive)	> 100 µM (inactive)	76 µM (inactive)	> 100
